Experimental data reported in article PMC3288537 (ACS Chemical Biology, 2011).

Biological target: T1, HePTP (Homo sapiens, UniProt P35236)
T1 sequence (P35236 1-360): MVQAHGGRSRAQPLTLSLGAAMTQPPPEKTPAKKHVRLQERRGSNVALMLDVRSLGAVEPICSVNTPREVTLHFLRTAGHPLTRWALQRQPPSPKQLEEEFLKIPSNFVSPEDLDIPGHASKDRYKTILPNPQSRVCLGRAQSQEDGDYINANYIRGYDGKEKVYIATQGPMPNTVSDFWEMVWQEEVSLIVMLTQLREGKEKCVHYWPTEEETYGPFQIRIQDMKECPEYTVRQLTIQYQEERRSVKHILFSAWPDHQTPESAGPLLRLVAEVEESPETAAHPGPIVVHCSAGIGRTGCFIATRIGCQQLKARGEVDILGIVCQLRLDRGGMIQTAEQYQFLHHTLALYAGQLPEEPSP
Test: Dose-response OMFP phosphatase assay, HePTP
Type: biochemical
Details: OMFP substrate

O=C(O)c1ccccc1 [benzoic acid, reference compound]
activity against HePTP (in words): did not inhibit
